Tests used:
Assay type in all cases: in vivo
[1] = system: Diabrotica balteata; experiment: Diabrotica balteata (corn root worm), sprayed maize sprouts, L2 larvae; settings: 96 h, spray on maize sprouts, 4 days after infestation, read-out: effect in at least one of the two categories (mortality or growth inhibition)
Experimental: Diabrotica balteata (Corn Root Worm)
Maize sprouts placed onto an agar layer in 24-well microtiter plates were treated with aqueous test solutions prepared from 10′000 ppm DMSO stock solutions by spraying. After drying, the plates were infested with L2 larvae (6 to 10 per well). The samples were assessed for mortality and growth inhibition in comparison to untreated samples 4 days after infestation. The following compounds gave an effect of at least 80% in at least one of the two categories (mortality or growth inhibition) at an application rate of 200 ppm: A1

[2] = system: Euschistus heros; experiment: Euschistus heros (neotropical brown stink bug), sprayed soybean leaves, N2 nymphs; settings: 120 h, spray on soybean leaves, 5 days after infestation, read-out: effect in at least one of the two categories (mortality or growth inhibition)
Experimental: Euschistus heros (Neotropical Brown Stink Bug)
Soybean leaves on agar in 24-well microtiter plates were sprayed with aqueous test solutions prepared from 10′000 ppm DMSO stock solutions. After drying the leaves were infested with N2 nymphs. The samples were assessed for mortality and growth inhibition in comparison to untreated samples 5 days after infestation.
The following compounds gave an effect of at least 80% in at least one of the two categories (mortality or growth inhibition) at an application rate of 200 ppm: A1, A2

[3] = system: Plutella xylostella; experiment: Plutella xylostella (diamond back moth), artificial diet, L2 larvae; settings: 120 h, 5 days after infestation, read-out: effect in at least one of the two categories (mortality or growth inhibition)
Experimental: (§1) Plutella xylostella (Diamond Back Moth)
24-well microtiter plates with artificial diet were treated with aqueous test solutions prepared from 10′000 ppm DMSO stock solutions by pipetting. After drying, the plates were infested with L2 larvae (10 to 15 per well). The samples were assessed for mortality and growth inhibition in comparison to untreated samples 5 days after infestation.
The following compounds gave an effect of at least 80% in at least one of the two categories (mortality or growth inhibition) at an application rate of 200 ppm: A1

[4] = system: Spodoptera littoralis; experiment: Spodoptera littoralis (Egyptian cotton leaf worm), sprayed cotton leaf discs, L1 larvae; settings: foliar, 72 h, spray on cotton leaf discs, 3 days after infestation, read-out: control (mortality, anti-feeding effect or growth inhibition)
Experimental: Spodoptera littoralis (Egyptian Cotton Leaf Worm)
Cotton leaf discs were placed onto agar in 24-well microtiter plates and sprayed with aqueous test solutions prepared from 10′000 ppm DMSO stock solutions. After drying the leaf discs were infested with five L1 larvae. The samples were assessed for mortality, anti-feeding effect, and growth inhibition in comparison to untreated samples 3 days after infestation. Control of Spodoptera littoralis by a test sample is given when at least one of the categories mortality, anti-feedant effect, and growth inhibition is higher than the untreated sample.

[5] = system: Tetranychus urticae; experiment: Tetranychus urticae (two-spotted spider mite) feeding/contact activity; settings: foliar, 192 h, spray on bean leaf discs, mixed population (mobile stages), 8 days after infestation
Experimental: Tetranychus urticae (Two-Spotted Spider Mite): Feeding/Contact Activity
Bean leaf discs on agar in 24-well microtiter plates were sprayed with aqueous test solutions prepared from 10′000 ppm DMSO stock solutions. After drying the leaf discs were infested with a mite population of mixed ages. The samples were assessed for mortality on mixed population (mobile stages) 8 days after infestation.

[6] = system: Thrips tabaci; experiment: Thrips tabaci (onion thrips) feeding/contact activity; settings: foliar, 144 h, spray on sunflower leaf discs, mixed ages, 6 days after infestation
Experimental: Thrips tabaci (Onion Thrips) Feeding/Contact Activity
Sunflower leaf discs were placed on agar in 24-well microtiter plates and sprayed with aqueous test solutions prepared from 10′000 ppm DMSO stock solutions. After drying the leaf discs were infested with a thrips population of mixed ages. The samples were assessed for mortality 6 days after infestation.

[7] = system: Plutella xylostella; experiment: Plutella xylostella (diamond back moth), artificial diet, eggs; settings: 192 h, 8 days after infestation, read-out: effect in at least one of the two categories (mortality or growth inhibition)
Experimental: as §1
24-well microtiter plates with artificial diet were treated with aqueous test solutions prepared from 10′000 ppm DMSO stock solutions by pipetting. After drying, Plutella eggs were pipetted through a plastic stencil onto a gel blotting paper and the plate was closed with it. The samples were assessed for mortality and growth inhibition in comparison to untreated samples 8 days after infestation.
The following compounds gave an effect of at least 80% in at least one of the two categories (mortality or growth inhibition) at an application rate of 200 ppm: A2

COC(=O)N(C(=O)c1ccc(C2=NO[C@@](c3cc(Cl)c(F)c(Cl)c3)(C(F)(F)F)C2)cc1C)C1CN(S(=O)(=O)C(F)F)C1 [A1, methyl N-[4-[(5S)-5-(3,5-dichloro-4-fluoro-phenyl)-5-(trifluoromethyl)-4H-isoxazol-3-yl]-2-methyl-benzoyl]-N-[1-(difluoromethylsulfonyl)azetidin-3-yl]carbamate]
≥ 80%: percent effect (mortality or growth inhibition) at 200 ppm [1] | percent effect (mortality or growth inhibition) at 200 ppm [2] | percent effect (mortality or growth inhibition) at 200 ppm [3] | percent control (mortality, anti-feedant effect or growth inhibition) at 200 ppm [4] | mortality at 200 ppm [5] | mortality at 200 ppm [6]

CCOC(=O)N(C(=O)c1ccc(C2=NO[C@@](c3cc(Cl)c(F)c(Cl)c3)(C(F)(F)F)C2)cc1C)C1CN(S(=O)(=O)C(F)F)C1 [A2, ethyl N-[4-[(5S)-5-(3,5-dichloro-4-fluoro-phenyl)-5-(trifluoromethyl)-4H-isoxazol-3-yl]-2-methyl-benzoyl]-N-[1-(difluoromethylsulfonyl)azetidin-3-yl]carbamate]
≥ 80%: percent effect (mortality or growth inhibition) at 200 ppm [2] | percent effect (mortality or growth inhibition) at 200 ppm [7] | percent control (mortality, anti-feedant effect or growth inhibition) at 200 ppm [4]
